Assay results as given in paper PMC3750255, “Inhibition of Mycoplasma pneumoniae growth by FDA-approved anticancer and antiviral nucleoside and nucleobase analogs” (BMC Microbiology, 2013).

Tests used:
[1] = molecular target: T1, TK in Mpn extracts (Mycoplasmoides pneumoniae, UniProt P75070); experiment: Inhibition of dT phosphorylation in Mpn protein extracts; type: biochemical; conditions: 10 μM tritium labelled thymidine; read-out: IC50 Mpn extracts
T1 construct: endogenous in cells; host or cells: Mycoplasma pneumoniae M129 total protein extract
T1 sequence (P75070 1-191): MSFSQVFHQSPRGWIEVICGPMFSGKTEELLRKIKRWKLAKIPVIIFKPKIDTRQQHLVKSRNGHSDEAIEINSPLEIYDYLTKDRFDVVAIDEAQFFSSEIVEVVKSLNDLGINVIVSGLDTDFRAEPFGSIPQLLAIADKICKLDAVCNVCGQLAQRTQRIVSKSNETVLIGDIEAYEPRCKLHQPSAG
Method: Both TFT and 5FdU are substrates of Mycoplasma and human TKs, as described above and earlier studies.
(§1) Thymidine kinase assay was performed using tritium labelled thymidine ([^3H]-dT) as substrate and various concentrations of the inhibitors essentially as previously described to determine the IC50 values of TFT and 5FdU.

[2] = system: Mpn wild type cells; experiment: Uptake and metabolism of tritium labelled natural nucleoside and nucleobases in the presence of analogs; type: cell-based, Mycoplasma pneumoniae
Method: The cells were harvested and analyzed essentially as described. Analogs used were dipyridamole, 6-thioguanine (6-TG), trifluorothymidine (TFT), gemcitabine (dFdC) and 5-fluorodeoxyuridine (5FdU). Total uptake is the percent of radioactivity recovered in the cells divided by total radioactivity added to the growth medium. Percent of acid insoluble (radioactivity found in DNA and RNA) was also calculated. These experiments were done more than three times and data are given as mean ± SD.

[3] = system: Mpn TK; experiment: TK activity in total protein extracts of Mpn cultured with TFT; type: cell-based, Mycoplasma pneumoniae; conditions: 10 μM TFT, 70 hours culture
Method: (§2) Total proteins were extracted from these cultures and used to determine the TK and TS activity.
(§3) Mpn wild type cells were cultured in the presence of [^3H]-dT and different concentrations of TFT. The cells were incubated at 37°C for 70 hours and harvested. The total uptake and incorporation of [^3H]-dT were analysed, and TK and TS activity were determined in total protein extracts.
(§4) To determine the effect of TFT on TK and TS activity, Mpn wild type cells were cultured in 75 cm^2 tissue culture flasks containing 50 ml medium, inoculated with 3 ml of stock culture (1 × 10^9 cfu/ml), in the presence of [^3H]-dT (1 μCi ml^-1) and different concentrations of TFT. After 70 hours at 37°C the cultures were harvested and divided to two aliquots, one was used to determine total uptake/metabolism of radiolabeled dT and total proteins were extracted from the other aliquot and used to measure TK and TS activity using [^3H]-dT and [5-^3H]-dUMP as substrates.

[4] = system: M. pneumoniae thyA mutant (lacking TS activity); experiment: microbe, parasite or virus in culture; type: cell-based, Mycoplasma pneumoniae; conditions: minimal concentration producing 90% inhibition; thyA mutant Mpn
Method: A series dilution of each compound in Mycoplasma growth medium was added to Mpn cultures in 96-well plates. The plates were sealed and incubated at 37°C. Mpn growth was monitored by using growth index value e.g. the ratio of absorbance at 450 nm and 560 nm of the culture medium. Thirty nucleoside and nucleobase analogs and a nucleoside transporter inhibitor were included, and two Mpn strains, wild type and a thyA mutant (lacking TS activity), were used.
Nucleoside and nucleobase analogs were dissolved in dimethyl sulfoxide (DMSO) as stock solutions and diluted with Mpn culture medium to the desired concentration immediately prior to use.
Mpn laboratory strain M129 wild type and a thyA mutant strain [31] were used in this study. Mpn was cultured at 37°C in a CO2 incubator using 75 cm^2 tissue culture flasks containing 50 ml Hayflick’s medium, and harvested at day 4 when the medium color change was observed. The cells were harvested and the pellet was resuspended in 6 ml fresh medium and the cfu/ml was determined by serial dilution (10-fold) and plating on broth agar plate. Colonies was counted and cfu/ml was calculated.
Inhibition studies were performed in 96-well plates containing 200 μl Mpn culture (approximately 10^6 cfu ml^-1) in Hayflick’s medium and 200 μl each compound in series dilutions (2-fold) with the growth medium, with three to four replicas. The plates were sealed with clear adhesive sheets and incubated at 37°C incubator. Absorbance ratio at 450 nm and 560 nm was used as Mpn growth index, which was measured daily, and by visual detection for at least 8 days, as previously described. […] The MICs (minimal inhibitory concentration required to inhibit Mpn growth to 90%) were determined as the lowest concentration at which the growth index was ≈ 10% of the control values (at the time when the control culture medium color turned yellow), essentially as described.

[5] = molecular target: T2, Ureaplasma TK (Ureaplasma parvum serovar 3, UniProt Q9PPP5); experiment: Thymidine kinase inhibition with [3H]-dT as substrate; type: biochemical; conditions: 10 μM tritium labelled thymidine
T2 construct: made in house
T2 sequence (Q9PPP5 1-223): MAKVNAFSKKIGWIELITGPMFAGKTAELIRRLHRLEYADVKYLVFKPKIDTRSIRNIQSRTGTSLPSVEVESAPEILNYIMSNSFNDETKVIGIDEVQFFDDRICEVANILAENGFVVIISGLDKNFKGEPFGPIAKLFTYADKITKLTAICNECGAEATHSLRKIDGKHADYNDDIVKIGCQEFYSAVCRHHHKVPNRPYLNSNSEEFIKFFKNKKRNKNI
Method: as §1

[6] = molecular target: T3, human TK1 (Homo sapiens, UniProt P04183); experiment: as above; type: biochemical; conditions: 10 μM tritium labelled thymidine
T3 construct: made in house
T3 sequence (P04183 1-234): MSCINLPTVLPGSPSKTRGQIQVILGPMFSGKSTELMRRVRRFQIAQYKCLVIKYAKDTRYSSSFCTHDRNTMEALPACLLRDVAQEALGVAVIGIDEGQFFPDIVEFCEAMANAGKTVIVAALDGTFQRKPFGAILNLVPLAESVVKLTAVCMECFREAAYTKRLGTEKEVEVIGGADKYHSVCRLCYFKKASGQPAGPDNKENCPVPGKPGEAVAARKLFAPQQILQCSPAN
Method: as §1

[7] = molecular target: T4, human TK2 (Homo sapiens, UniProt O00142); experiment: as above; type: biochemical; conditions: 10 μM tritium labelled thymidine
T4 construct: made in house
T4 sequence (O00142 34-265): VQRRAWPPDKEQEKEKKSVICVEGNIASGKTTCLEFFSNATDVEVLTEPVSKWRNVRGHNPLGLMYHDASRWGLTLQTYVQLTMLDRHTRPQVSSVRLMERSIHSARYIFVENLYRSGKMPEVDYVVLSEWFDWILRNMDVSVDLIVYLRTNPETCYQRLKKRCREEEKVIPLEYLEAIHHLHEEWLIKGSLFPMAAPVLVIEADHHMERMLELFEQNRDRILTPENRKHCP
Method: as §1

[8] = system: Mpn TS; experiment: TS activity in total protein extracts of Mpn cultured with TFT; type: cell-based; conditions: various concentrations of TFT, 70 hours culture
Method: as §2, §3, §4

[9] = 10 μM analog, 70 hours, 37°C, radioactivity in cells / total added
[10] = 10 μM analog, 70 hours, acid insoluble fraction / total in cells

SMILES: O=c1[nH]c(=O)n([C@H]2C[C@H](O)[C@@H](CO)O2)cc1C(F)(F)F [Trifluorothymidine (TFT), Trifluorothymidine]
- IC50 [1]: 9.1 ± 2.9 µM
- Stimulation of [3H]-dT uptake ([2]; 10 μM analog versus control): 2 fold
- [3H]-Ade Total uptake [2, 9]: 0.43±0.01%
- [3H]-Gua Total uptake [2, 9]: 0.19±0.02%
- [3H]-Hx Total uptake [2, 9]: 0.011± 0.001%
- [3H]-Ura Total uptake [2, 9]: 0.11±0.002%
- [3H]-dT Total uptake [2, 9]: 18.2±0.6%
- [3H]-Ade Incorporation [2, 10]: 48±2%
- [3H]-Gua Incorporation [2, 10]: 85±4%
- [3H]-Hx Incorporation [2, 10]: 67±1%
- [3H]-Ura Incorporation [2, 10]: 27±0.2%
- [3H]-dT Incorporation [2, 10]: 97.4±0.5%
- TK activity relative to controls [3]: ~ 3 times
- thyA mutant MIC [4]: 1.8 µg/mL
- IC50 [5]: 12 ± 4.2 µM
- IC50 [6]: 9.7 ± 3.2 µM
- IC50 [7]: 80 ± 5.6 µM
- TS activity (in words) [8]: unchanged
